Assay results taken from the supplement of paper PMC10307832.

Experiments:
Test in all cases: relative viability (nuclei count vs DMSO), 5 days (fraction); higher = more cells survive
LU99A = test system: LU99A
Summary of the method: (§1)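 Relative viability was taken as the ratio of nuclei in treated wells to nuclei in vehicle wells. Lung cancer cell lines in 1536-well plates received compounds by pin tool one day after seeding, either one drug alone or a fixed anchor-drug dose plus five library-drug doses (not always all listed) in √10 steps. Nuclei were counted on 4× images after 5 days of treatment, and values are medians of duplicate plates.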

NCI-H358 = test system: NCI-H358
Summary of the method: as §1

COR-L 105 = test system: COR-L 105
Summary of the method: as §1

NCI-H460 = test system: NCI-H460
Summary of the method: as §1

LXF-289 = test system: LXF-289
Summary of the method: as §1

NCI-H2342 = test system: NCI-H2342
Summary of the method: as §1

LCLC-97TM1 = test system: LCLC-97TM1
Summary of the method: as §1

LC-2-ad = test system: LC-2-ad
Summary of the method: as §1

HCC-78 = test system: HCC-78
Summary of the method: as §1

SK-LU-1 = test system: SK-LU-1
Summary of the method: as §1

A-427 = test system: A-427
Summary of the method: as §1

SW 900 = test system: SW 900
Summary of the method: as §1

NCI-H1755 = test system: NCI-H1755
Summary of the method: as §1

EPLC-272H = test system: EPLC-272H
Summary of the method: as §1

UMC-11 = test system: UMC-11
Summary of the method: as §1

HCC-366 = test system: HCC-366
Summary of the method: as §1

NCI-H1944 = test system: NCI-H1944
Summary of the method: as §1

HOP-62 = test system: HOP-62
Summary of the method: as §1

NCI-H1915 = test system: NCI-H1915
Summary of the method: as §1

NCI-H1975 = test system: NCI-H1975
Summary of the method: as §1

NCI-H2085 = test system: NCI-H2085
Summary of the method: as §1

NCI-H2170 = test system: NCI-H2170
Summary of the method: as §1

NCI-H1793 = test system: NCI-H1793
Summary of the method: as §1

With COc1cc(N2CCC(C(N)=O)CC2)ccc1Nc1nc(N)c(Cl)c(Nc2ccccc2S(=O)(=O)C(C)C)n1 [HG-5-88-01] + O=C(CCCCCCC(=O)Nc1ccccc1)NO [Vorinostat] (partner 1 µM) the relative viability (LU99A; first compound 0.04 µM) was 0.442, the relative viability (LU99A; first compound 0.1265 µM) was 0.454 and the relative viability (LU99A; first compound 0.4 µM) was 0.522. For the same compound, the relative viability (LU99A; first compound 1.265 µM) was 0.55, the relative viability (LU99A; first compound 4 µM) was 0.436 and the relative viability (NCI-H358; first compound 0.04 µM) was 0.666. The relative viability (NCI-H358; first compound 0.1265 µM) was 0.602, the relative viability (NCI-H358; first compound 0.4 µM) was 0.544 and the relative viability (NCI-H358; first compound 1.265 µM) was 0.155. For the same compound, the relative viability (NCI-H358; first compound 4 µM) was 0.182, the relative viability (COR-L 105; first compound 0.04 µM) was 0.849 and the relative viability (COR-L 105; first compound 0.1265 µM) was 0.722. For the same compound, the relative viability (COR-L 105; first compound 0.4 µM) was 0.847, the relative viability (COR-L 105; first compound 1.265 µM) was 0.639 and the relative viability (COR-L 105; first compound 4 µM) was 0.59. The relative viability (NCI-H460; first compound 0.04 µM) was 0.72, the relative viability (NCI-H460; first compound 0.1265 µM) was 0.737 and the relative viability (NCI-H460; first compound 0.4 µM) was 0.678. It also gave a relative viability (NCI-H460; first compound 1.265 µM) of 0.783, a relative viability (NCI-H460; first compound 4 µM) of 0.595 and a relative viability (LXF-289; first compound 0.04 µM) of 0.93. For the same compound, the relative viability (LXF-289; first compound 0.1265 µM) was 0.754, the relative viability (LXF-289; first compound 0.4 µM) was 0.826 and the relative viability (LXF-289; first compound 1.265 µM) was 0.847. The relative viability (LXF-289; first compound 4 µM) was 0.822, the relative viability (NCI-H2342; first compound 0.04 µM) was 0.654 and the relative viability (NCI-H2342; first compound 0.1265 µM) was 0.961. The relative viability (NCI-H2342; first compound 0.4 µM) was 0.737, the relative viability (NCI-H2342; first compound 4 µM) was 0.945 and the relative viability (LCLC-97TM1; first compound 0.04 µM) was 0.75. It also gave a relative viability (LCLC-97TM1; first compound 0.1265 µM) of 0.757, a relative viability (LCLC-97TM1; first compound 0.4 µM) of 0.62 and a relative viability (LCLC-97TM1; first compound 1.265 µM) of 0.645. For the same compound, the relative viability (LCLC-97TM1; first compound 4 µM) was 0.126, the relative viability (LC-2-ad; first compound 0.04 µM) was 0.804 and the relative viability (LC-2-ad; first compound 0.1265 µM) was 0.75. For the same compound, the relative viability (LC-2-ad; first compound 0.4 µM) was 0.745, the relative viability (LC-2-ad; first compound 1.265 µM) was 0.674 and the relative viability (LC-2-ad; first compound 4 µM) was 0.579. The relative viability (HCC-78; first compound 0.04 µM) was 0.467, the relative viability (HCC-78; first compound 0.1265 µM) was 0.357 and the relative viability (HCC-78; first compound 0.4 µM) was 0.356. For the same compound, the relative viability (HCC-78; first compound 1.265 µM) was 0.206, the relative viability (HCC-78; first compound 4 µM) was 0.217 and the relative viability (SK-LU-1; first compound 0.04 µM) was 0.783. It also gave a relative viability (SK-LU-1; first compound 0.1265 µM) of 0.82, a relative viability (SK-LU-1; first compound 0.4 µM) of 0.789 and a relative viability (SK-LU-1; first compound 1.265 µM) of 0.773. It also gave a relative viability (SK-LU-1; first compound 4 µM) of 0.547, a relative viability (A-427; first compound 0.04 µM) of 0.892 and a relative viability (A-427; first compound 0.1265 µM) of 0.859. For the same compound, the relative viability (A-427; first compound 0.4 µM) was 0.884, the relative viability (A-427; first compound 1.265 µM) was 0.912 and the relative viability (A-427; first compound 4 µM) was 0.726. For the same compound, the relative viability (SW 900; first compound 0.04 µM) was 0.583, the relative viability (SW 900; first compound 0.1265 µM) was 0.334 and the relative viability (SW 900; first compound 0.4 µM) was 0.525. The relative viability (SW 900; first compound 1.265 µM) was 0.447, the relative viability (SW 900; first compound 4 µM) was 0.354 and the relative viability (NCI-H1755; first compound 0.04 µM) was 0.79. For the same compound, the relative viability (NCI-H1755; first compound 0.1265 µM) was 0.804, the relative viability (NCI-H1755; first compound 0.4 µM) was 0.715 and the relative viability (NCI-H1755; first compound 1.265 µM) was 0.748. It also gave a relative viability (NCI-H1755; first compound 4 µM) of 0.744, a relative viability (EPLC-272H; first compound 0.04 µM) of 0.497 and a relative viability (EPLC-272H; first compound 0.1265 µM) of 0.606. The relative viability (EPLC-272H; first compound 0.4 µM) was 0.6, the relative viability (EPLC-272H; first compound 1.265 µM) was 0.503 and the relative viability (EPLC-272H; first compound 4 µM) was 0.116. It also gave a relative viability (UMC-11; first compound 0.04 µM) of 0.437, a relative viability (UMC-11; first compound 0.1265 µM) of 0.442 and a relative viability (UMC-11; first compound 0.4 µM) of 0.354. It also gave a relative viability (UMC-11; first compound 1.265 µM) of 0.33, a relative viability (UMC-11; first compound 4 µM) of 0.288 and a relative viability (HCC-366; first compound 0.04 µM) of 0.438. It also gave a relative viability (HCC-366; first compound 0.1265 µM) of 0.452, a relative viability (HCC-366; first compound 0.4 µM) of 0.339 and a relative viability (HCC-366; first compound 1.265 µM) of 0.336. The relative viability (HCC-366; first compound 4 µM) was 0.283, the relative viability (NCI-H1944; first compound 0.04 µM) was 0.623 and the relative viability (NCI-H1944; first compound 0.1265 µM) was 0.627. For the same compound, the relative viability (NCI-H1944; first compound 0.4 µM) was 0.645, the relative viability (NCI-H1944; first compound 1.265 µM) was 0.55 and the relative viability (NCI-H1944; first compound 4 µM) was 0.568. It also gave a relative viability (HOP-62; first compound 0.04 µM) of 0.579, a relative viability (HOP-62; first compound 0.1265 µM) of 0.799 and a relative viability (HOP-62; first compound 0.4 µM) of 0.611. For the same compound, the relative viability (HOP-62; first compound 1.265 µM) was 0.728, the relative viability (HOP-62; first compound 4 µM) was 0.668 and the relative viability (NCI-H1915; first compound 0.04 µM) was 0.476. The relative viability (NCI-H1915; first compound 0.1265 µM) was 0.525, the relative viability (NCI-H1915; first compound 0.4 µM) was 0.525 and the relative viability (NCI-H1915; first compound 1.265 µM) was 0.57. The relative viability (NCI-H1915; first compound 4 µM) was 0.386, the relative viability (NCI-H1975; first compound 0.04 µM) was 0.734 and the relative viability (NCI-H1975; first compound 0.1265 µM) was 0.711. For the same compound, the relative viability (NCI-H1975; first compound 0.4 µM) was 0.689, the relative viability (NCI-H1975; first compound 1.265 µM) was 0.612 and the relative viability (NCI-H1975; first compound 4 µM) was 0.35. For the same compound, the relative viability (NCI-H2085; first compound 0.04 µM) was 0.825, the relative viability (NCI-H2085; first compound 0.1265 µM) was 0.846 and the relative viability (NCI-H2085; first compound 0.4 µM) was 0.729. The relative viability (NCI-H2085; first compound 1.265 µM) was 0.791, the relative viability (NCI-H2085; first compound 4 µM) was 0.758 and the relative viability (NCI-H2170; first compound 0.04 µM) was 0.837. It also gave a relative viability (NCI-H2170; first compound 0.1265 µM) of 0.9, a relative viability (NCI-H2170; first compound 0.4 µM) of 0.773 and a relative viability (NCI-H2170; first compound 1.265 µM) of 0.594. The relative viability (NCI-H2170; first compound 4 µM) was 0.892, the relative viability (NCI-H1793; first compound 0.04 µM) was 0.648 and the relative viability (NCI-H1793; first compound 0.1265 µM) was 0.95. It also gave a relative viability (NCI-H1793; first compound 0.4 µM) of 0.725, a relative viability (NCI-H1793; first compound 1.265 µM) of 0.575 and a relative viability (NCI-H1793; first compound 4 µM) of 0.53.
